# Laboratory results from patent US20240132955A1, “BENIGN SCAR-FORMING CLEAVABLE LINKERS” (Ultima Genomics, Inc., priority 2021, published 2024).
# What was measured:
# Type in all cases: biochemical
# [1] = test system: template nucleic acid sequence; assay: Sequencing assays with different capping reagents (Example 6, FIG. 11); conditions: for fluorescence intensities for subsequent incorporation steps: capping between flows, compared with assay without capping reagents
# Procedure: Extension and sequencing performance were tested for a set of labeled nucleotides and capping reagents. The labeled nucleotides used in this example consisted of the dye-linkers as shown in FIG. 9A on each of the four nucleotides. A set of sequencing assays were performed by extending a primer against a template nucleic acid sequence in the presence of alternating flows of single fluorescently labeled nucleotides provided as cycles of U, A, C, and then G. In between each flow, the fluorescent labels were detected, cleaved, and optionally capped with one of ethyl propiolate (EP), iodoacetamide (IAc), methyl methanethiosulfonate (MMTS), or dipyridyl disulfide (DPDS). Each labeled nucleotide flow was then followed by a “dark tap” flow consisting of 100% unlabeled nucleotides to maintain phasing.
# FIG. 11 summarizes the results of the sequencing assays in table 1100. Table 1100 provides the results of uridine, adenosine, cytidine, and guanosine incorporation steps performed without any capping agents or in the presence of different capping agents. Assay A illustrates results from sequencing assays performed without capping reagents. Following a high-efficiency first nucleotide incorporation step with labeled uridine, subsequent nucleotide incorporation steps were suppressed, including subsequent uridine additions.
# [2] = test system: template nucleic acid starting with AGTCTTTGGGTT; assay: Sequencing assays with capping or immolating linkers (Example 9, FIG. 16); conditions: DPDS in U dark tap flows; 100% labeled U, 10% A, 20% C, 10% G; compared to FIG. 16A
# Procedure: In this example, a set of sequencing assays were performed by extending a primer against the same template nucleic acid starting with AGTCTTTGGGTT in the presence of alternating flows of single fluorescently labeled nucleotides provided as cycles of U, A, C, and then G. In between each flow, the fluorescent labels were detected, cleaved, and optionally capped with dipyridyl disulfide (DPDS). Each labeled nucleotide flow was then followed by a “dark tap” flow consisting of 100% unlabeled nucleotides to maintain phasing. Furthermore, some assays utilized nucleotides with immolating linkers.
# In each figure, the y-axes provide fluorescence intensity following labeled nucleotide incorporation, and the four plots (from top to bottom) separately provide the results of uridine, adenosine, cytidine, and guanosine incorporation steps, with individual cycles progressing from left to right. In particular, a closer look is taken at the first 4 flow-cycles of U-A-C-G, where nucleotides are expected to be incorporated in the order of T-C (cycle 1; U, A, C, G flows being a complete single cycle), A-G (cycle 2), AAA-CCC (cycle 3), AA (cycle 4). Here nucleotides incorporated in each U-A-C-G flow-cycle are separated with square brackets. […]
# [3] = test system: template strand comprising the 3′ sequence TCAGTGGTTG; assay: Sequencing assay with capping reagent DPDS in U dark tap flows (Example 5); conditions: DPDS only in U dark tap flows; 100% labeled U, 10% A, 20% C, 10% G
# Excerpt: In this example, a set of labeled nucleotide reagents were contacted to a primer hybridized to a template strand comprising the 3′ sequence TCAGTGGTTG under conditions suitable for extension. Fluorescently labeled adenosine, cytidine, and guanosine nucleotides were of the structure indicated in FIG. 10A, while labeled uridine nucleotides were of the structure provided in FIG. 10B. Different canonical nucleotide types were provided in separate, sequential flows, starting with uridine (U), followed by adenosine (A), cytidine (C), and finally guanosine (G), before repeating the cycle beginning again with U. Flows contained anywhere from 10% to 100% labeled nucleotides, with the remaining nucleotides provided in their natural, unlabeled form. In between each flow, the fluorescent labels were detected, cleaved, and optionally capped. Each labeled nucleotide flow was then followed by a “dark tap” flow consisting of 100% unlabeled nucleotides in order to maintain phasing.
# FIG. 10E summarizes the sequencing results of an assay utilizing flows with 100% labeled U, 10% labeled A, 20% labeled C, 10% labeled G, and the capping reagent DPDS. provided in only the U “dark tap” nucleotide flows. […] This was likely due to capping reagent cleavage from the nucleotide scars, as the linker cleavage reagent was likely also active in removing caps from scar moieties. […]
Compound,fluorescence intensities for subsequent incorporation steps [1],labeled A incorporation [2],incorporation efficiency for the next flow (A) [3],"effectiveness as capping reagent ([1]; among EP, IAc, MMTS, DPDS)","fluorescence intensities from subsequent nucleotide incorporations, comparison among capping assays ([1]; assays B-E)"
"C#CC(=O)OCC [EP, ethyl propiolate]",high intensities,,,,
"NC(=O)CI [IAc, iodoacetamide]",high intensities,,,,
dipyridyl disulfide [DPDS],high intensities,greatly enhanced,increased the incorporation efficiency for the next flow,most effective,highest intensities
